Measurements reported in PubChem BioAssay AID1963967 (Molecular Pharmacology Branch, DTP, NCI, 2024).
“And” between values parts separate entries of the source, which are not always exact repeats. Identical values can stand only once.

Test system: 855422-203-R-J1-PDC spheroids with HUVEC/MSC, viability
Assay: Anticancer human tumor 855422-203-R-J1-PDC patient-derived bladder carcinoma cell line growth inhibition [PI3K]
Conditions: for viability, T/C: stronger effect = lower value
From the text: Combinatorial screen of targeted agents with the PI3K inhibitors inavolisib, alpelisib, duvelisib, and copanlisib in multi-cell type tumor spheroids
A high-throughput screen of multi-cell type tumor spheroids was designed to identify active combinations of targeted small molecules and PI3K pathway inhibitors. Complex spheroids include a stromal component modeled by human endothelial cells (HUVEC) and fibroblasts modeled by human mesenchymal stem cells (MSCs). The concentration ranges selected for each drug and investigational agent were based upon clinically achievable concentrations if the clinical Cmax of the agent was known.
Compounds. The drugs and investigational agents: inavolisib (NSC800729), alpelisib (NSC765974), duvelisib (NSC772469), copanlisib (NSC816437), ipatasertib (NSC767898), afuresertib (NSC778305), talazoparib (NSC767125), sapanisertib (NSC764658), selumetinib (NSC741078), tovorafenib (DAY101, NSC766906), vemurafenib (NSC761431), ravoxertinib (NSC781343), sotorasib (NSC818433), MRTX1133 (NSC 836407), abemaciclib (NSC 768073), palbociclib (NSC758247), venetoclax (NSC 766270), SY5609 (NSC837396), enzalutamide (NSC755605), and darolutamide (NSC825331), were obtained from the National Cancer Institute (NCI) Developmental Therapeutics Program Chemical Repository. The FDA-approved anticancer drug set is available from the NCI Developmental Therapeutics Program. […] The stock solutions were prepared in dimethyl sulfoxide (DMSO, Sigma-Aldrich, St. Louis, MO, cat. D2650) at 800-fold the tested concentration and stored at -70 degrees C prior to their use. All drugs and investigational agents were tested over a range starting from a high concentration at or near the clinical Cmax and decreasing in half-log increments. If the clinical Cmax for an agent had not been determined, the highest concentration tested was 10 microM.
Cell Culture. All cells were maintained in an incubator at 37 degrees C and 5% CO2 with 95% humidity. The PDC lines were cultured according to standard operating procedures established by the NCI PDMR (https://pdmr.cancer.gov/sops/default.htm). All PDCs were thawed and cultured in Matrigel-coated flasks prepared with a working solution of 1X Ham's F-12 nutrient mix, without supplementation (Invitrogen, Waltham, MA, cat. 11765054), 100 U/mL penicillin-streptomycin (Invitrogen, cat. 15140122), and 2.5% Matrigel (Corning Inc., Corning, NY, cat. 354248) for the first three passages. The 354836-022-R-J1-PDC, 475296-252-R-J1-PDC, and 997726-040-R-J2-PDC lines were cultured in 6A media, which includes advanced DMEM/F-12 (Thermo Fisher Scientific, cat. 12634028), 10 mM HEPES (Thermo Fisher Scientific, cat. 15630080), 1X GlutaMAX supplement (Thermo Fisher Scientific, cat. 35050061), 0.1 mg/mL primocin (InvivoGen, San Diego, CA, cat. ant-pm-2), 10% defined fetal bovine serum, heat inactivated (HyClone Laboratories Inc., Logan, UT, cat. SH30070.03HI), 50% L-WRN conditioned media (ATCC, cat. CRL-3276), 1.25 mM N-Acetyl-L-cysteine (Sigma-Aldrich, cat. A9165), 10 mM nicotinamide (Sigma-Aldrich, cat. N0636), 1X B-27 supplement (Thermo Fisher Scientific, cat. 17504044), 1X N-2 supplement (Thermo Fisher Scientific, cat. 17502048), and 10 microM Y-27632 dihydrochloride (Tocris Bioscience, Bristol, United Kingdom, cat. 1254). The 624824-186-R-J2-PDC line was cultured in 6C/Colon 1B media, which includes all 6A media components plus 50 ng/mL human EGF recombinant protein (Thermo Fisher Scientific, cat. PHG0311). […]

[1] = curve of first compound, second compound 0.0316 µM
[2] = curve of first compound, second compound 0.1 µM
[3] = curve of first compound, second compound 0.316 µM
[4] = curve of first compound, second compound 1 µM
[5] = second compound 0.0316 µM, first compound 0.0316 µM
[6] = second compound 0.0316 µM, first compound 0.1 µM
[7] = second compound 0.1 µM, first compound 0.0316 µM
[8] = second compound 0.1 µM, first compound 0.1 µM
[9] = second compound 0.316 µM, first compound 0.0316 µM
[10] = second compound 0.316 µM, first compound 0.1 µM
[11] = second compound 1 µM, first compound 0.0316 µM
[12] = second compound 1 µM, first compound 0.1 µM
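Note: agents incubated with spheroids for one week before read-out.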
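Throughout, for viability, T/C: 100% = DMSO vehicle-treated control wells.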

`CNC(=O)c1ccc(N2C(=S)N(c3ccc(C#N)c(C(F)(F)F)c3)C(=O)C2(C)C)cc1F` was tested, and the viability, T/C (compound 0.0316 µM) was 110% [middle of 4 runs], the viability, T/C (compound 0.1 µM) was 99.4% [middle of 4 runs] and the viability, T/C (compound 0.316 µM) was 106% [middle of 4 runs]. The viability, T/C (compound 1 µM) was 84.8% [middle of 4 runs], the viability, T/C (compound 3.16 µM) was 79.4% [middle of 4 runs] and the viability, T/C (compound 10 µM) was 66.9% [middle of 4 runs]. It also gave an IC50 (curve of compound) of over 10000 nM.
For `Cn1ncnc1[C@H]1c2n[nH]c(=O)c3cc(F)cc(c23)N[C@@H]1c1ccc(F)cc1`, the viability, T/C (compound 0.000316 µM) was 113% [middle of 4 runs], the viability, T/C (compound 0.001 µM) was 107% [middle of 4 runs] and the viability, T/C (compound 0.00316 µM) was 104% (2×) and 108% and 109%. For the same compound, the viability, T/C (compound 0.01 µM) was 101% [middle of 4 runs], the viability, T/C (compound 0.0316 µM) was 110% [middle of 4 runs] and the viability, T/C (compound 0.1 µM) was 107% and 100% (3×). For the same compound, the IC50 (curve of compound) was over 100 nM.
With `CC(C)n1nc(-c2ccc3oc(N)nc3c2)c2c(N)ncnc21` + Cc1nc(NC(=O)N2CCCC2C(N)=O)sc1-c1ccnc(C(C)(C)C(F)(F)F)c1 the IC50 [1] was 49.5 nM, the IC50 [2] was 42.8 nM and the IC50 [3] was 33.1 nM. It also gave an IC50 [4] of 11.1 nM, an IC50 (curve of first compound, second compound 3.16 µM) of under 0.316 nM and an IC50 (curve of first compound, second compound 10 µM) of under 0.316 nM. For the same compound, the viability, T/C (second compound 0.0316 µM, first compound 0.000316 µM) was 85.8%, the viability, T/C (second compound 0.0316 µM, first compound 0.001 µM) was 86.9% and the viability, T/C (second compound 0.0316 µM, first compound 0.00316 µM) was 106%. The viability, T/C (second compound 0.0316 µM, first compound 0.01 µM) was 87.6%, the viability, T/C [5] was 70.7% and the viability, T/C [6] was 17.8%. For the same compound, the viability, T/C (second compound 0.1 µM, first compound 0.000316 µM) was 105%, the viability, T/C (second compound 0.1 µM, first compound 0.001 µM) was 88.5% and the viability, T/C (second compound 0.1 µM, first compound 0.00316 µM) was 97.2%. For the same compound, the viability, T/C (second compound 0.1 µM, first compound 0.01 µM) was 82.8%, the viability, T/C [7] was 63.6% and the viability, T/C [8] was 14.7%. The viability, T/C (second compound 0.316 µM, first compound 0.000316 µM) was 68.4%, the viability, T/C (second compound 0.316 µM, first compound 0.001 µM) was 87.6% and the viability, T/C (second compound 0.316 µM, first compound 0.00316 µM) was 87.4%. For the same compound, the viability, T/C (second compound 0.316 µM, first compound 0.01 µM) was 75.1%, the viability, T/C [9] was 51.8% and the viability, T/C [10] was 12.3%. It also gave a viability, T/C (second compound 1 µM, first compound 0.000316 µM) of 67.5%, a viability, T/C (second compound 1 µM, first compound 0.001 µM) of 66.9% and a viability, T/C (second compound 1 µM, first compound 0.00316 µM) of 55.9%. For the same compound, the viability, T/C (second compound 1 µM, first compound 0.01 µM) was 51.4%, the viability, T/C [11] was 37.8% and the viability, T/C [12] was 8.4%. The viability, T/C (second compound 3.16 µM, first compound 0.000316 µM) was 42.5%, the viability, T/C (second compound 3.16 µM, first compound 0.001 µM) was 44.7% and the viability, T/C (second compound 3.16 µM, first compound 0.00316 µM) was 35.8%. It also gave a viability, T/C (second compound 3.16 µM, first compound 0.01 µM) of 34.1%, a viability, T/C (second compound 3.16 µM, first compound 0.0316 µM) of 20.5% and a viability, T/C (second compound 3.16 µM, first compound 0.1 µM) of 5.68%. For the same compound, the viability, T/C (second compound 10 µM, first compound 0.000316 µM) was 22.9%, the viability, T/C (second compound 10 µM, first compound 0.001 µM) was 19.3% and the viability, T/C (second compound 10 µM, first compound 0.00316 µM) was 20.3%. For the same compound, the viability, T/C (second compound 10 µM, first compound 0.01 µM) was 16.2%, the viability, T/C (second compound 10 µM, first compound 0.0316 µM) was 11.9% and the viability, T/C (second compound 10 µM, first compound 0.1 µM) was 3.12%.
Compound `CC(C)NCC(C(=O)N1CCN(c2ncnc3c2C(C)CC3O)CC1)c1ccc(Cl)cc1` (stereo not drawn) + COc1c(OCCCN2CCOCC2)ccc2c3n(c(=NC(=O)c4cnc(N)nc4)nc12)CCN3 has an IC50 (curve of first compound, second compound 0.00316 µM) of 1130 nM, an IC50 (curve of first compound, second compound 0.01 µM) of 1920 nM and an IC50 [1] of 969 nM. It also gave an IC50 [2] of under 31.6 nM, an IC50 [3] of under 31.6 nM and an IC50 [4] of under 31.6 nM. For the same compound, the viability, T/C (second compound 0.00316 µM, first compound 0.0316 µM) was 108%, the viability, T/C (second compound 0.00316 µM, first compound 0.1 µM) was 62% and the viability, T/C (second compound 0.00316 µM, first compound 0.316 µM) was 71.9%. The viability, T/C (second compound 0.00316 µM, first compound 1 µM) was 57.4%, the viability, T/C (second compound 0.00316 µM, first compound 3.16 µM) was 41% and the viability, T/C (second compound 0.00316 µM, first compound 10 µM) was 18.8%. It also gave a viability, T/C (second compound 0.01 µM, first compound 0.0316 µM) of 79%, a viability, T/C (second compound 0.01 µM, first compound 0.1 µM) of 73.3% and a viability, T/C (second compound 0.01 µM, first compound 0.316 µM) of 67%. It also gave a viability, T/C (second compound 0.01 µM, first compound 1 µM) of 62%, a viability, T/C (second compound 0.01 µM, first compound 3.16 µM) of 42% and a viability, T/C (second compound 0.01 µM, first compound 10 µM) of 15.5%. For the same compound, the viability, T/C [5] was 63.3%, the viability, T/C [6] was 64.3% and the viability, T/C (second compound 0.0316 µM, first compound 0.316 µM) was 55.6%. The viability, T/C (second compound 0.0316 µM, first compound 1 µM) was 51.3%, the viability, T/C (second compound 0.0316 µM, first compound 3.16 µM) was 23% and the viability, T/C (second compound 0.0316 µM, first compound 10 µM) was 12.6%. The viability, T/C [7] was 30.3%, the viability, T/C [8] was 30.1% and the viability, T/C (second compound 0.1 µM, first compound 0.316 µM) was 35.3%. It also gave a viability, T/C (second compound 0.1 µM, first compound 1 µM) of 24.7%, a viability, T/C (second compound 0.1 µM, first compound 3.16 µM) of 15.5% and a viability, T/C (second compound 0.1 µM, first compound 10 µM) of 6.96%. The viability, T/C [9] was 11.1%, the viability, T/C [10] was 10.8% and the viability, T/C (second compound 0.316 µM, first compound 0.316 µM) was 11.4%. For the same compound, the viability, T/C (second compound 0.316 µM, first compound 1 µM) was 10.5%, the viability, T/C (second compound 0.316 µM, first compound 3.16 µM) was 6% and the viability, T/C (second compound 0.316 µM, first compound 10 µM) was 3.59%. The viability, T/C [11] was 5.39%, the viability, T/C [12] was 4.74% and the viability, T/C (second compound 1 µM, first compound 0.316 µM) was 4.07%. For the same compound, the viability, T/C (second compound 1 µM, first compound 1 µM) was 4.44%, the viability, T/C (second compound 1 µM, first compound 3.16 µM) was 2.79% and the viability, T/C (second compound 1 µM, first compound 10 µM) was 1.58%.
